Data published in patent publication US11149040B2, “Fused triazole agonists of the APJ receptor” (AMGEN INC., priority 2017, dated 2021).

Target: human APJ receptor (Homo sapiens (Human), UniProt P35414)
Test: [35S]GTPγS binding assay on membranes from CHO cells stably expressing human APJ receptor
Format: biochemical
Conditions: read-out: Activity hAPJ SPA EC50 IP
Summary of the method: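 Membranes from CHO cells stably expressing FLAG-tagged human APJ; assay buffer GDP, MgCl2 and NaCl levels optimised beforehand. Incubation 90 min at RT, imager read-out. EC50 from non-linear regression on means of several independent experiments.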

Sequence of human APJ receptor (P35414 whole entry): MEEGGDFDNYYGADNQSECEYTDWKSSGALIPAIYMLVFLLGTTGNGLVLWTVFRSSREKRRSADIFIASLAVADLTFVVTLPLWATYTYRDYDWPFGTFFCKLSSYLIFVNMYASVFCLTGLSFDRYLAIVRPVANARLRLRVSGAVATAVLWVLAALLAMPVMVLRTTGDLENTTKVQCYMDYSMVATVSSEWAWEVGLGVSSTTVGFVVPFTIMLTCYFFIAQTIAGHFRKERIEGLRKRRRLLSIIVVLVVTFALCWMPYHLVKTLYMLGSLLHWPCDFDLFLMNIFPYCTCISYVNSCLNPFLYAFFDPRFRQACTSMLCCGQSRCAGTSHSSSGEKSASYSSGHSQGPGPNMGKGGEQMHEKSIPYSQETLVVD

Going from `COC[C@@H]1COc2ncccc2-c2nnc(NS(=O)(=O)[C@@H](C)[C@@H](OC(C)C)c3ncc(C)cn3)n21` (single isomer, unassigned) [Example 41.0, (1S,2S)-N-((5R)-5-(methoxymethyl)-5,6-dihydropyrido[3,2-f][1,2,4]triazolo[4,3-d][1,4]oxazepin-3-yl)-1-(5-methyl-2-pyrimidinyl)-1-(2-propanyloxy)-2-propanesulfonamide or (1S,2S)-N-((5S)-5-(methoxymethyl)-5,6-dihydropyrido[3,2-f][1,2,4]triazolo[4,3-d][1,4]oxazepin-3-yl)-1-(5-methyl-2-pyrimidinyl)-1-(2-propanyloxy)-2-propanesulfonamide] to `COC[C@@H]1COc2ncccc2-c2nnc(NS(=O)(=O)[C@@H](C)[C@H](OC(C)C)c3ncc(C)cn3)n21` (single isomer, unassigned) [Example 67.0, (1R,2S)-N-((5R)-5-(methoxymethyl)-5,6-dihydropyrido[3,2-f][1,2,4]triazolo[4,3-d][1,4]oxazepin-3-yl)-1-(5-methyl-2-pyrimidinyl)-1-(2-propanyloxy)-2-propanesulfonamide or (1R,2S)-N-((5S)-5-(methoxymethyl)-5,6-dihydropyrido[3,2-f][1,2,4]triazolo[4,3-d][1,4]oxazepin-3-yl)-1-(5-methyl-2-pyrimidinyl)-1-(2-propanyloxy)-2-propanesulfonamide], the EC50 rises from 0.044 µM to 0.25 µM (5.7-fold). The first is the more potent here.

First: COC[C@@H]1COc2ncccc2-c2nnc(NS(=O)(=O)[C@@H](C)[C@@H](OC(C)C)c3ncc(Cl)cn3)n21 (single isomer, unassigned) [Example 44.0, (1S,2S)-1-(5-chloro-2-pyrimidinyl)-N-((5R)-5-(methoxymethyl)-5,6-dihydropyrido[3,2-f][1,2,4]triazolo[4,3-d][1,4]oxazepin-3-yl)-1-(2-propanyloxy)-2-propanesulfonamide or (1S,2S)-1-(5-chloro-2-pyrimidinyl)-N-((5S)-5-(methoxymethyl)-5,6-dihydropyrido[3,2-f][1,2,4]triazolo[4,3-d][1,4]oxazepin-3-yl)-1-(2-propanyloxy)-2-propanesulfonamide]
Second: COC[C@@H]1COc2ncccc2-c2nnc(NS(=O)(=O)[C@@H](C)[C@H](OC(C)C)c3ncc(C)cn3)n21 (single isomer, unassigned) [Example 68.0, (1R,2S)-N-((5R)-5-(methoxymethyl)-5,6-dihydropyrido[3,2-f][1,2,4]triazolo[4,3-d][1,4]oxazepin-3-yl)-1-(5-methyl-2-pyrimidinyl)-1-(2-propanyloxy)-2-propanesulfonamide or (1R,2S)-N-((5S)-5-(methoxymethyl)-5,6-dihydropyrido[3,2-f][1,2,4]triazolo[4,3-d][1,4]oxazepin-3-yl)-1-(5-methyl-2-pyrimidinyl)-1-(2-propanyloxy)-2-propanesulfonamide]
The EC50 of the first is 260-fold lower: 0.015 µM for the first, 3.9 µM for the second. The first is the more potent here.

Going from `COC[C@@H]1COc2ncccc2-c2nnc(NS(=O)(=O)[C@@H](C)[C@@H](OC(C)C)c3ncc(Cl)cn3)n21` (single isomer, unassigned) [Example 45.0, (1S,2S)-1-(5-chloro-2-pyrimidinyl)-N-((5R)-5-(methoxymethyl)-5,6-dihydropyrido[3,2-f][1,2,4]triazolo[4,3-d][1,4]oxazepin-3-yl)-1-(2-propanyloxy)-2-propanesulfonamide or (1S,2S)-1-(5-chloro-2-pyrimidinyl)-N-((5S)-5-(methoxymethyl)-5,6-dihydropyrido[3,2-f][1,2,4]triazolo[4,3-d][1,4]oxazepin-3-yl)-1-(2-propanyloxy)-2-propanesulfonamide] to `CO[C@H](c1ncc(C)cn1)[C@H](C)S(=O)(=O)Nc1nnc2n1[C@H](COC(C)C)COc1ncccc1-2` (single isomer, unassigned) [Example 63.0, (1R,2S)-N-((R)-5-(isopropoxymethyl)-5,6-dihydropyrido[3,2-f][1,2,4]triazolo[4,3-d][1,4]oxazepin-3-yl)-1-methoxy-1-(5-methylpyrimidin-2-yl)propane-2-sulfonamide or (1R,2S)-N-((S)-5-(isopropoxymethyl)-5,6-dihydropyrido[3,2-f][1,2,4]triazolo[4,3-d][1,4]oxazepin-3-yl)-1-methoxy-1-(5-methylpyrimidin-2-yl)propane-2-sulfonamide], the EC50 rises from 0.16 µM to 0.8 µM (5-fold). The first is the more potent here.

`Cc1cnc([C@H](OC(C)C)[C@H](C)S(=O)(=O)Nc2nnc3n2-c2ccccc2/C=C\CC3)nc1` (single isomer, unassigned) [Example 47.0, (P) (1S,2S)-N-((Z)-4,5-dihydrobenzo[g][1,2,4]triazolo[4,3-a]azocin-1-yl)-1-isopropoxy-1-(5-methylpyrimidin-2-yl)propane-2-sulfonamide or (M) (1S,2S)-N-((Z)-4,5-dihydrobenzo[g][1,2,4]triazolo[4,3-a]azocin-1-yl)-1-isopropoxy-1-(5-methylpyrimidin-2-yl)propane-2-sulfonamide] and `Cc1cnc([C@H](OC(C)C)[C@H](C)S(=O)(=O)Nc2nnc3n2-c2c(F)cccc2/C=C\CC3)nc1` (single isomer, unassigned) [Example 48.0, (P)(1S,2S)-N-((Z)-11-Fluoro-4,5-dihydrobenzo[g][1,2,4]triazolo[4,3-a]azocin-1-yl)-1-isopropoxy-1-(5-methylpyrimidin-2-yl)propane-2-sulfonamide or (M)(1S,2S)-N-((Z)-11-fluoro-4,5-dihydrobenzo[g][1,2,4]triazolo[4,3-a]azocin-1-yl)-1-isopropoxy-1-(5-methylpyrimidin-2-yl)propane-2-sulfonamide] cannot be ordered by EC50: greater than 12.5 µM for the first, greater than 12.5 µM for the second.

First: Cc1cnc([C@H](OC(C)C)[C@H](C)S(=O)(=O)Nc2nnc3n2-c2c(F)cccc2/C=C\C[C@@H]3C)nc1 (single isomer, unassigned) [Example 50.0]
Second: COc1ccc2c(c1)-c1nnc(NS(=O)(=O)[C@@H](C)[C@@H](OC(C)C)c3ncc(C)cn3)n1C(CO)CO2 (single isomer, unassigned) [Example 150.0, (1S,2S)-N-((5R)-5-(hydroxymethyl)-10-methoxy-5,6-dihydro[1,2,4]triazolo[4,3-d][1,4]benzoxazepin-3-yl)-1-(5-methyl-2-pyrimidinyl)-1-(2-propanyloxy)-2-propanesulfonamide or (1S,2S)-N-((5S)-5-(hydroxymethyl)-10-methoxy-5,6-dihydro[1,2,4]triazolo[4,3-d][1,4]benzoxazepin-3-yl)-1-(5-methyl-2-pyrimidinyl)-1-(2-propanyloxy)-2-propanesulfonamide]
The EC50 of the first is 160-fold lower: 0.012 µM for the first, 1.88 µM for the second. The first is the more potent here.

First: Cc1cnc([C@H](OC(C)C)[C@H](C)S(=O)(=O)Nc2nnc3n2-c2c(F)cccc2/C=C\C[C@@H]3C)nc1 (single isomer, unassigned) [Example 51.0]
Second: COC[C@@H]1COc2cccnc2-c2nnc(NS(=O)(=O)[C@@H](C)[C@@H](OC(C)C)c3ncc(C)cn3)n21 (single isomer, unassigned) [Example 69.0, (1S,2S)-N-((5R)-5-(methoxymethyl)-5,6-dihydropyrido[2,3-f][1,2,4]triazolo[4,3-d][1,4]oxazepin-3-yl)-1-(5-methyl-2-pyrimidinyl)-1-(2-propanyloxy)-2-propanesulfonamide or (1S,2S)-N-((5S)-5-(methoxymethyl)-5,6-dihydropyrido[2,3-f][1,2,4]triazolo[4,3-d][1,4]oxazepin-3-yl)-1-(5-methyl-2-pyrimidinyl)-1-(2-propanyloxy)-2-propanesulfonamide]
The EC50 of the first is 27-fold lower: 0.0086 µM for the first, 0.23 µM for the second.

First: Cc1cnc([C@H](OC(C)C)[C@H](C)S(=O)(=O)Nc2nnc3n2-c2c(F)cccc2/C=C\C[C@@H]3C)nc1 (single isomer, unassigned) [Example 52.0]
Second: COC[C@@H]1COc2cccnc2-c2nnc(NS(=O)(=O)[C@@H](C)[C@@H](OC(C)C)c3ncc(C)cn3)n21 (single isomer, unassigned) [Example 70.0, (1S,2S)-N-((5R)-5-(methoxymethyl)-5,6-dihydropyrido[2,3-f][1,2,4]triazolo[4,3-d][1,4]oxazepin-3-yl)-1-(5-methyl-2-pyrimidinyl)-1-(2-propanyloxy)-2-propanesulfonamide or (1S,2S)-N-((5S)-5-(methoxymethyl)-5,6-dihydropyrido[2,3-f][1,2,4]triazolo[4,3-d][1,4]oxazepin-3-yl)-1-(5-methyl-2-pyrimidinyl)-1-(2-propanyloxy)-2-propanesulfonamide]
The EC50 of the first is higher: greater than 12.5 µM for the first, 1.21 µM for the second. The second is the more potent here.

Compared with `Cc1cnc([C@H](OC(C)C)[C@H](C)S(=O)(=O)Nc2nnc3n2-c2c(F)cccc2/C=C\C[C@@H]3C)nc1` (single isomer, unassigned) [Example 53.0], `COC[C@@H]1COc2cnccc2-c2nnc(NS(=O)(=O)[C@@H](C)[C@@H](OC(C)C)c3ncc(C)cn3)n21` (single isomer, unassigned) [Example 66.0, (1S,2S)-N-((5R)-5-(methoxymethyl)-5,6-dihydropyrido[4,3-f][1,2,4]triazolo[4,3-d][1,4]oxazepin-3-yl)-1-(5-methyl-2-pyrimidinyl)-1-(2-propanyloxy)-2-propanesulfonamide or (1S,2S)-N-((5S)-5-(methoxymethyl)-5,6-dihydropyrido[4,3-f][1,2,4]triazolo[4,3-d][1,4]oxazepin-3-yl)-1-(5-methyl-2-pyrimidinyl)-1-(2-propanyloxy)-2-propanesulfonamide] is 3.5-fold higher in EC50: 0.22 µM for the first, 0.76 µM for the second. The first is the more potent here.

`CO[C@H](c1ncc(C)cn1)[C@H](C)S(=O)(=O)Nc1nnc2n1[C@H](COC(C)C)COc1ncccc1-2` (single isomer, unassigned) [Example 64.0, (1R,2S)-N-((R)-5-(isopropoxymethyl)-5,6-dihydropyrido[3,2-f][1,2,4]triazolo[4,3-d][1,4]oxazepin-3-yl)-1-methoxy-1-(5-methylpyrimidin-2-yl)propane-2-sulfonamide or (1R,2S)-N-((S)-5-(isopropoxymethyl)-5,6-dihydropyrido[3,2-f][1,2,4]triazolo[4,3-d][1,4]oxazepin-3-yl)-1-methoxy-1-(5-methylpyrimidin-2-yl)propane-2-sulfonamide] was tested, and the EC50 was 0.64 µM.
